Laboratory results published in US20040266791A1 (priority 2003, published 2004).
Counter-ions that a name gives are not always drawn.

Columns and labels:
[1] = cited from earlier work
[2] = Hygroscopicity test / water content by Karl Fischer titration; type: physicochemical; settings: for Water content in % at 2 weeks, 40/75: 40° C./75% relative humidity; for Water content in % at 2 weeks, normal: normal conditions (open air); for Water content in % at t = 0: before storage, Karl Fischer; for water content: isolated dried product of the example
Protocol: The salts were subjected to storage at normal conditions (open air) and at 40° C./75% relative humidity. Water content was determined by Karl Fischer titration.

[3] = 1 mg/ml aqueous solution, 2% sorbitol, 0.2% benzoic acid, stress temperatures up to 80° C.
Protocol: Dissolve the benzoic acid in 60% of the water (heat if necessary to 90° C., allow to cool afterwards). […] The sorbitol is dissolved in the remaining water (40%). Combine both solutions and make up the volume with water.

[4] = in water at 20° C., calculated on free base
Protocol: The dissolution of the solid can take a period of time until an equilibrium/steady state between the solid and liquid phases is reached. […] This value is taken as the solubility determination.
Then, 2 ml of the suspension was filtered over a micropore filter. Finally, 1.0 ml of the filtrate was freeze-dried, followed by weight determination of the residue. The maximum amount of the salt dissolved (recalculated to the base), was calculated from this weight determination.

For `Cc1nc2n(c(=O)c1CCN1CCC(c3noc4cc(F)ccc34)CC1)CCCC2` [Risperidone base, 3-[2-[4-(6-Fluoro-1,2-benzisoxazol-3-yl)-1-piperidinyl]-ethyl]-6,7,8,9-tetrahydro-2-methyl-4-H-pyrido[1,2-a]-pyrimidin-4-one], the solubility in water ([1]; background statement, no source given) is given as “approximately 4 mg/ml”.

With `Cc1nc2n(c(=O)c1CCN1CCC(c3noc4cc(F)ccc34)CC1)CCCC2` [Risperidone dihydrochloride] the “Water content in % at 2 weeks, 40/75” value [2] was 0.15%, the “Water content in % at 2 weeks, normal” value [2] was 0.15% and the “water content after exposure to air under ambient conditions for 3 weeks” value ([2]; 3 weeks, air, ambient conditions) was 3 weeks: 0.30%. The “absorbed or adsorbed water” value ([2]; absence of drying, or standing at ambient temperature in open air) was “less than 0.5%”, the “Water content in % at t = 0” value [2] was 0.13% and the hygroscopicity ([2]; standing at ambient temperature in open air) was “not hygroscopic”. The stability of solution [3] was “surprisingly stable”.

In the case of `Cc1nc2n(c(=O)c1CCN1CCC(c3noc4cc(F)ccc34)CC1)CCCC2.O=C(O)C=CC(=O)O` [Risperidone hydrogenmaleate], the “Water content in % at 2 weeks, 40/75” value [2] is reported as 0.07%, the “Water content in % at 2 weeks, normal” value [2] is reported as 0.09% and the “Water content in % at t = 0” value [2] is reported as 0.09%. For the same molecule, the water content [2] was “water content: <0.1%” and the stability of solution [3] was “surprisingly stable”.

With Risperidone (L)hemimalate the “Water content in % at 2 weeks, 40/75” value [2] was 1.09%, the “Water content in % at 2 weeks, normal” value [2] was 0.95% and the “Water content in % at t = 0” value [2] was 0.89%. For the same molecule, the “solubility (calc. on free base)” value [4] was >300 mg/mL and the stability of solution [3] was “surprisingly stable”.

In the case of Risperidone Hemifumarate, the “solubility (calc. on free base)” value [4] is reported as 3 mg/mL.

With Risperidone acetate monohydrate the “Water content in % at 2 weeks, 40/75” value [2] was 3.66%, the “Water content in % at 2 weeks, normal” value [2] was 3.39% and the “Water content in % at t = 0” value [2] was 3.78%. For the same molecule, the “solubility (calc. on free base)” value [4] was 72 mg/mL.

For Risperidone besylate, the “solubility (calc. on free base)” value [4] was 6.5 mg/mL.

In the case of Risperidone hemitartrate, the “Water content in % at 2 weeks, 40/75” value [2] is reported as 0.59%, the “Water content in % at 2 weeks, normal” value [2] is reported as 0.56% and the “Water content in % at t = 0” value [2] is reported as 0.28%. The water content [2] was “Water content: 0.28%” and the “solubility (calc. on free base)” value [4] was 40 mg/mL.

In the case of Risperidone mesylate, the “Water content in % at 2 weeks, 40/75” value ([2]; listed as Mesylate) is reported as 8.51%, the “Water content in % at 2 weeks, 40/75” value ([2]; listed as risperidone mesylate) is reported as 2 weeks: 8.51% and the “Water content in % at 2 weeks, normal” value ([2]; listed as Mesylate) is reported as 1.38%. The “Water content in % at 2 weeks, normal” value ([2]; listed as risperidone mesylate) was “for 2 weeks: 1.38%”, the “Water content in % at t = 0” value [2] was 0.41% and the water content [2] was “water content: 0.41%”. For the same molecule, the “solubility (calc. on free base)” value [4] was >160 mg/mL.

With Risperidone tosylate the “solubility (calc. on free base)” value [4] was 2 mg/mL.

In the case of risperidone tartrate, the room temperature solubility ([1]; reported in U.S. Pat. No. 5,616,587) is given as “about 80 mg/ml”.
